≈ marks a conversion by molar mass, not a printed value. Like-named read-outs stand apart in the source and are kept apart here.
Tests used:
microorganisms = assay: Minimum Inhibitory Concentration (MIC) testing; format: cell-based; conditions: concentration completely inhibiting microbial growth
physchem = assay: physchem
Excerpt: The term “fragrance composition” or “composition,” as used herein, represents a composition containing one or more fragrance ingredients described here and formulated with a physiologically acceptable diluent or solvent, used interchangeably here. In a fragrance composition, or composition that has a fragrance, such as a perfume, 20%-40% of the observable liquid may be comprised of a diluent, i.e., the delivery system for scents of the fragrance ingredients. The “log P” value, as used here, indicates whether a substance or fragrance ingredient will be absorbed by humans, animals, plants, or living tissue; diffused or disseminated by water.
(§1) Also included is the molecular weight of each of the fragrance ingredients. Not determinable (ND).

[1] = Water solubility at 25° C. of fragrance ingredients
Excerpt: as §1

[2] = Vapor pressure of fragrance ingredients
Excerpt: as §1

[3] = Flash point of fragrance ingredients; format: physicochemical
Excerpt: as §1

[4] = Clarity of fragrance ingredient in bioderived 1,3-BG by visual observation
Method: Clarity for each of the fragrance ingredients (10% in bioderived 1,3-BG) was determined by visual observations after compounding and blending the fragrance ingredient with bioderived 1,3-BG and identified as clear, slightly haze, cloudy, particles, or separation.
Clarity for each of the fragrance ingredients (at 1% in bioderived 1,3-BG) was determined by visual observations after compounding and blending the fragrance ingredient with bioderived 1,3-BG and identified as clear, slightly haze, cloudy, particles, or separation.

[5] = 10% ingredient in bioderived 1,3-BG, clear, slightly haze, cloudy, particles, or separation

| Molecule | logP (physchem) | Water Solubility ([1]; 25° C.) [mg/L] | Vapor Pressure [2] [mm hg] | Flash Point [3] [°C] | Clarity 10% [4, 5] | also measured |
| --- | --- | --- | --- | --- | --- | --- |
| OCCCO [1,3-PG, 1,3-Propylene Glycol] |  |  |  |  |  | MIC A. brasiliensis (microorganisms; A. brasiliensis): >350 mg/mL; MIC C. albicans (microorganisms; C. albicans): 250 mg/mL (≈ 3290 mM); MIC E. coli (microorganisms; E. coli): 225 mg/mL (≈ 2960 mM); MIC P. aeruginosa (microorganisms; P. aeruginosa): 200 mg/mL (≈ 2630 mM); MIC S. aureus (microorganisms; S. aureus): 300 mg/mL (≈ 3940 mM) |
| CCCCCCCCCC=O [Aldehyde C-10] | 3.97 | 43.520 | 0.207 | 82 |  |  |
| C=CCCCCCCCCC=O [Aldehyde C-11 Undecylenic] | 4.072 | 30.000 | 0.039 | 76 |  |  |
| CCCCCCCCCCCC=O [Aldehyde C-12 Lauric] | 4.989 | 4.649 | 0.034 | 116 | Clear |  |
| CCCCCCCCCC(C)C=O (stereo not drawn) [Aldehyde C-12 MNA] | 4.834 | 5.372 | 4.834 | 69 | Clear |  |
| C=CCOC(=O)COCCC(C)C [Allyl Amyl Glycolate] | 2.7 | 510.700 | 0.04 | 93 |  |  |
| CC1(O)CCC2C(=CCCC2(C)C)C1 (stereo not drawn) [Ambrinol] | 3.785 |  | 0.0005 | 100 | Clear | Water Solubility [1]: 134.300 mg/L |
| CC1(C)CCC[C@]2(C)[C@H]3CCO[C@]3(C)CC[C@@H]12 [Ambrox Super (Ambroxan), Ambroxan] |  |  | 0.009 | 100 | Particles |  |
| CC=Cc1ccc(OC)cc1 [Anethole] |  |  | 0.069 | 110 | Cloudy |  |
| COc1ccc(C=O)cc1 [Anisic Aldehyde] |  |  | 1 | 116 | Clear | Water Solubility [1]: 4290.000 mg/L |
| COc1ccc(COC(C)=O)cc1 [Anisyl Acetate] | 1.887 | 782.900 | 0.021 | 135 |  | Clarity 1% [4]: Clear; Clarity 10% [4]: Clear |
| CC/C(=C\CC1CC=C(C)C1(C)C)CO (stereo not drawn) [Bacdanol] | 4.3 | 17.000 | 0.00028 | 199 | Clear |  |
| CC(=O)OCc1ccccc1 [Benzyl Acetate] |  |  | 0.177 | 91 | Clear |  |
| CC1C(C)(C)C2=C(C(=O)CCC2)C1(C)C (stereo not drawn) [Cashmeran] | 4.5 | 5.937 | 0.003 | 94 | Clear |  |
| N#C/C=C/c1ccccc1 [Cinnamalva] | 1.84 |  | 0.023 | 94 | Clear | Water Solubility [1]: 1067.000 mg/L |
| CC/C=C\CCO [Cis-3-Hexenol] | 1.7 |  | 1.039 | 44 | Clear |  |
| CC/C=C\CCOC(=O)c1ccccc1O [Cis-3-Hexenyl Salicylate] | 4.4 |  | 0.000246 | 110 | Cloudy | solubility ([1]; water, 25 °C): 9.52 µg/mL (≈ 0.0432 mM) |
| CC(C)=CCCC(C)=CC=O [Citral] |  |  | 0.2 | 98 | Clear |  |
| CC1=CC(C)C(C=O)CC1 (stereo not drawn) [Cyclal C/Triplal] | 3 |  | 0.578 | 66 | Clear | Water Solubility [1]: 311.500 mg/L |
| c1ccc(COCc2ccccc2)cc1 [Dibenzyl Ether] | 3.31 |  | 0.00103 | 93 | Cloudy | solubility ([1]; water, 25 °C): 40 µg/mL (≈ 0.202 mM) |

| Molecule | logP (physchem) | Water Solubility ([1]; 25° C.) [mg/L] | Vapor Pressure [2] [mm hg] | Flash Point [3] [°C] | Clarity 10% [4, 5] | also measured |
| --- | --- | --- | --- | --- | --- | --- |
| C=CC(C)CCCC(C)(C)O (stereo not drawn) [Dihydro Myrcenol] | 2.99 | 252.200 | 0.166 | 76 | Clear |  |
| CC(C)CCCC(C)(C)O [Dimetol] | 2.976 | 777.000 | 0.33 | 63 | Clear |  |
| CCOc1cc(C=O)ccc1O [Ethyl Vanillin] |  |  | 0.001 | 127 | Clear | Water Solubility [1]: 2820.000 mg/L |
| O=C1CCCCCCCCCCCC(=O)OCCO1 [Ethylene Brassylate] | 2.77 |  | 0 | 110 | Cloudy | solubility ([1]; water, 25 °C): 1.72 µg/mL (≈ 0.00636 mM) |
| CC12CCC(CC1)C(C)(C)O2 [Eucalyptol] | 2.74 |  | 1.9 | 50 | Clear | solubility ([1]; water, 25 °C): 3500 µg/mL (≈ 22.7 mM) |
| CCOC(=O)CC1(C)OCCO1 [Fructone] | 0.982 | 100.000 | 0.219 | 93 | Clear |  |
| CC1COCc2cc3c(cc21)C(C)(C)C(C)C3(C)C (stereo not drawn) [Galaxolide] | 5.92 |  | 0.000414 | 104 | Separation | solubility ([1]; 25 °C, water): 0.194 µg/mL (≈ 0.000751 mM) |
| O=Cc1ccc2c(c1)OCO2 [Heliotropine] | 1.05 |  | 0.003 | 110 |  | Clarity 1% [4]: Clear; Clarity 10% [4]: Clear; Water Solubility [1]: 3500.000 mg/L |
| CC(=O)C1(C)CC2=C(CCCC2(C)C)CC1C (stereo not drawn) [Iso E Super] | 4.71 |  | 0.001 | 111 | Cloudy |  |
| CC(=O)OCCC(C)C [Isoamyl Acetate] |  | 2000.000 | 5.6 | 38 | Clear |  |
| C=CC(C)(O)CCC=C(C)C (stereo not drawn) [Linalool] |  |  | 0.016 | 75 | Clear |  |
| C=CC(C)(CCC=C(C)C)OC(C)=O (stereo not drawn) [Linalyl Acetate] | 3.93 |  | 0.116 | 94 |  | Clarity 1% [4]: Clear; solubility ([1]; 25 °C, water): 20.1 µg/mL |
| CC(=O)C(C)=CC1C(C)=CCCC1(C)C (stereo not drawn) [Methyl Ionone Gamma] | 4.315 |  | 0.006 | 110 | Cloudy | Water Solubility [1]: 2.980 mg/L |
| CC1CC=CCCCCCCCCCC(=O)C1 (stereo not drawn) [Muscenone] | 4.88 | 0.346 | 0.1 | 100 | Cloudy |  |
| C=C(C)[C@@H]1CCC2=CC(=O)C[C@@H](C)[C@]2(C)C1 [Nootkatone] | 3.77 |  | 0.000358 | 110 | Clear | solubility ([1]; 25 °C, water): 2.38 µg/mL (≈ 0.0109 mM) |
| CCC(CC)C(=O)N(C)c1cccc(C)c1 [Paradisamide] | 3.295 | 46.430 | 0.0038 | 138 | Clear |  |
| CC(=O)OC(C)(C)C1CC=C(C)CC1 (stereo not drawn) [Terpinyl Acetate] | 3.59 | 18.970 | 0.058 | 100 |  | Clarity 1% [4]: Clear |
| COc1cc(C=O)ccc1O [Vanillin] |  |  | 0.002 | 153 | Clear | solubility ([1]; water, 25 °C): 6880 µg/mL (≈ 45.2 mM) |
| CC(=O)C1=C(C)C2CC3(C1)C(C)CCC3C2(C)C (stereo not drawn) [Vertofix Coeur] | 5.6 |  | 0.000084 | 100 | Cloudy |  |
| Caryophyllene | 6.3 | 0.050 | 0.013 | 16 |  | Clarity 1% [4]: Slightly Haze; Clarity 10% [4]: Cloudy |

Source: patent US20240225971A1 (Genomatica, Inc., priority 2021, published 2024)
